Reference: the NIST ThermoML archive (doi:10.1016/j.tca.2019.178431)
± gives the expanded uncertainty stated by the source.

Key:
[1] = Crystal; DTA
[2] = Molar enthalpy of transition or fusion; settings: Crystal; DSC

For `Clc1ccccc1C(c1ccccc1)(c1ccccc1)n1ccnc1` [1-((2-chlorophenyl)diphenylmethyl)-1H-imidazole], the Normal melting temperature [1] was 143.00 ± 0.4 °C and the “Molar enthalpy of transition or fusion” value [2] was 8.36 ± 0.203 kcal/mol.
